From ChEMBL document CHEMBL6103539, “A critical analysis of design, binding pattern and SAR of benzo-fused heteronuclear compounds as VEGFR-2 inhibitors” (Bioorg Med Chem, 2024)
One block for each compound: values may come before it.

Key:
MCF7 [1] = experiment: Cytotoxicity against human MCF7 cells assessed as reduction in cell viability incubated for 48 hrs by SRB assay; format: functional, cell-based; conditions: MCF7, 48 h
[2] = biological target: T1, Vascular endothelial growth factor receptor 2 (Homo sapiens, UniProt P35968); experiment: Inhibition of VEGFR2 in human MCF7 cells by horseradish peroxidase-coupled TMB substrate based ELISA; format: cell-based
[3] = Cytotoxicity against human MDA-MB-435 cells assessed as reduction in cell viability incubated for 72 hrs by CCK-8 assay; format: toxicity, cell-based
HeLa = experiment: Cytotoxicity against human HeLa cells assessed as reduction in cell viability incubated for 72 hrs by CCK-8 assay; format: functional, cell-based
[4] = Cytotoxicity against human HUVEC cells assessed as reduction in cell viability incubated for 72 hrs by CCK-8 assay; format: toxicity, cell-based
HT-29 = experiment: Cytotoxicity against human HT-29 cells assessed as reduction in cell viability incubated for 72 hrs by CCK-8 assay; format: functional, cell-based; conditions: HT-29, 72 h
[5] = biological target: T1, Vascular endothelial growth factor receptor 2; experiment: Inhibition of VEGFR-2 (unknown origin) at 1 uM by ELISA method relative to control
[6] = Cytotoxicity against human A549 cells assessed as reduction in cell viability incubated for 72 hrs by CCK-8 assay; format: toxicity, cell-based
HCT-116 [7] = experiment: Cytotoxicity against human HCT-116 cells assessed as reduction in cell growth by MTT assay; format: functional, cell-based
HepG2 [8] = experiment: Cytotoxicity against human HepG2 cells assessed as reduction in cell growth by MTT assay; format: functional, cell-based
MCF7 [9] = experiment: Cytotoxicity against human MCF7 cells assessed as reduction in cell growth by MTT assay; format: functional, cell-based
HCT-116 [10] = experiment: cells; conditions: Homo sapiens, HCT-116, 72 h
Description: Cytotoxicity against human HCT-116 cells assessed as reduction in cell viability incubated for 72 hrs by MTT assay

HepG2 [11] = experiment: cells; conditions: Homo sapiens, HepG2, 72 h
Description: Cytotoxicity against human HepG2 cells assessed as reduction in cell viability incubated for 72 hrs by MTT assay

MCF7 [12] = experiment: cells; conditions: Homo sapiens, MCF7, 72 h
Description: Cytotoxicity against human MCF7 cells assessed as reduction in cell viability incubated for 72 hrs by MTT assay

SK-MEL-2 = experiment: Inhibition of cell proliferation in human SK-MEL-2 cells at 0.3 uM relative to control; format: functional
UO-31 = experiment: Antiproliferative activity against human UO-31 cells assessed as reduction in cell viability incubated for 48 hrs by MTT assay; format: functional, cell-based; conditions: UO-31, 48 h
NCI-H522 = experiment: Inhibition of cell proliferation in human NCI-H522 cells at 0.3 uM relative to control; format: functional
[13] = biological target: T1, Vascular endothelial growth factor receptor 2; experiment: Inhibition of GST-tagged human recombinant VEGFR2 at 10 uM using Poly(4:1 Glu, Tyr) as substrate by Kinase-Glo Max reagent based luminescence analysis relative to control
A549 [14] = experiment: Cytotoxicity against human A549 cells assessed as reduction in cell growth incubated for 24 hrs by MTT assay; format: functional, cell-based; conditions: A549, 24 h
NCI-H460 = experiment: Cytotoxicity against human NCI-H460 cells assessed as reduction in cell growth incubated for 24 hrs by MTT assay; format: functional, cell-based; conditions: NCI-H460, 24 h
MCF7 [15] = experiment: Antiproliferative activity against human MCF7 cells assessed as cell growth inhibition measured for 24 hrs by MTT assay; format: functional, cell-based; conditions: MCF7, 24 h
HepG2 [16] = experiment: Antiproliferative activity against human HepG2 cells assessed as cell growth inhibition measured for 24 hrs by MTT assay; format: functional, cell-based; conditions: HepG2, 24 h
DU-145 = experiment: Antiproliferative activity against human DU-145 cells; format: functional, cell-based
MCF7 [17] = experiment: Antiproliferative activity against human MCF7 cells; format: functional, cell-based
[18] = biological target: T1, Vascular endothelial growth factor receptor 2; experiment: Inhibition of human VEGFR-2 by ELISA method
MCF7 [19] = experiment: Cytotoxicity against human MCF7 cells assessed as reduction in cell viability incubated for 48 hrs by MTT assay; format: functional, cell-based; conditions: MCF7, 48 h
[20] = biological target: T1, Vascular endothelial growth factor receptor 2; experiment: Inhibition of VEGFR-2 in human MCF7 cells by ELISA method; format: cell-based
HCT-116 [21] = experiment: Antiproliferative activity against human HCT-116 cells assessed as reduction in cell viability incubated for 48 hrs by MTT assay; format: functional, cell-based; conditions: HCT-116, 48 h
A549 [22] = experiment: Antiproliferative activity against human A549 cells assessed as reduction in cell viability incubated for 48 hrs by MTT assay; format: functional, cell-based; conditions: A549, 48 h
HepG2 [23] = experiment: Anticancer activity against human HepG2 cells; format: functional, cell-based
[24] = biological target: T1, Vascular endothelial growth factor receptor 2; experiment: Inhibition of VEGFR-2 (unknown origin)
HCT-116 [25] = experiment: Anticancer activity against human HCT-116 cells; format: functional, cell-based
MCF7 [26] = experiment: Anticancer activity against human MCF7 cells; format: functional, cell-based

T1 sequence (P35968 whole entry): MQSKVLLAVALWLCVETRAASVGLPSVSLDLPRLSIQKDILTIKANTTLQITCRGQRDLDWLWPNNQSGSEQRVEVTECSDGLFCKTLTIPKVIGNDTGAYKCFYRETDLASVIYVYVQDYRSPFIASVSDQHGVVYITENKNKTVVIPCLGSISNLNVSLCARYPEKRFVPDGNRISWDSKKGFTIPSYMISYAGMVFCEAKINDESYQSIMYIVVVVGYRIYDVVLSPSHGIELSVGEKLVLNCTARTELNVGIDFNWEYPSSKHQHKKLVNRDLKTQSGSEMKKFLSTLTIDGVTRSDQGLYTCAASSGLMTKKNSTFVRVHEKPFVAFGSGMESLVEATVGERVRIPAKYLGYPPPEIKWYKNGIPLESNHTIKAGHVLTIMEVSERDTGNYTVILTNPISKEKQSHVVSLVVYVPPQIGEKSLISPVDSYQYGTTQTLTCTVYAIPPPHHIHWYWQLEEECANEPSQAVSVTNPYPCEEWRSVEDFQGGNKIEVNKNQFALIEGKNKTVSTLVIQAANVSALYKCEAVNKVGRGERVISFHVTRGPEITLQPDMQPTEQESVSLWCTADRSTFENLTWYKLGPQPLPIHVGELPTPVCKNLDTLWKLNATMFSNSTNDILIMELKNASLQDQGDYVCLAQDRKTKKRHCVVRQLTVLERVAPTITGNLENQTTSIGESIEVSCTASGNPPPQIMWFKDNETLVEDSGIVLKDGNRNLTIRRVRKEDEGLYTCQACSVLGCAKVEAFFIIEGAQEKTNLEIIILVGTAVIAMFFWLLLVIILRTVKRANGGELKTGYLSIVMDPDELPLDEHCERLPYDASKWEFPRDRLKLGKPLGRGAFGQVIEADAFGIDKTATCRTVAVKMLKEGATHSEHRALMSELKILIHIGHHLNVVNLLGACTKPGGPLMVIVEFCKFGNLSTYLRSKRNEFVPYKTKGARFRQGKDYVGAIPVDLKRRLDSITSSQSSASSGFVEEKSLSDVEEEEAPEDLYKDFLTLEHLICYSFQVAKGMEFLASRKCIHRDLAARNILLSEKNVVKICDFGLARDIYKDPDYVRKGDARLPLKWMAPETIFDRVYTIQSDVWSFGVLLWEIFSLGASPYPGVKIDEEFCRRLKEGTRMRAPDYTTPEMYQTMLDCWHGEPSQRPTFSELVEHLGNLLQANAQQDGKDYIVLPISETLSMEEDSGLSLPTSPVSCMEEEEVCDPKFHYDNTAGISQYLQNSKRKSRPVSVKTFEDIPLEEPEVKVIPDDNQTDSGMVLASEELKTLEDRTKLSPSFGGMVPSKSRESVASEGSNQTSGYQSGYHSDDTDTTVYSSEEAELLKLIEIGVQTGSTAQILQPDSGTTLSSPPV

IC50 [2]: 0.19 µM
Compound: COc1cc(-c2nc3ccccc3s2)ccc1OCC(=O)N/N=C/c1ccc(O)cc1
IC50 (MCF7 [1]): 7.83 µM

inhibition [5]: 36.7%
Compound: COc1ccc2[nH]cc(C(=O)OCc3nc4ccccc4n3C)c2c1
IC50 at 72 h [3]: 0.45 µM
IC50 (HeLa): 0.26 µM
IC50 at 72 h [4]: 0.32 µM
IC50 (HT-29): 0.26 µM
IC50 at 72 h [6]: 0.3 µM

Compound: Cc1c(C(=O)NNC(=S)Nc2ccc(Cl)cc2)nnn1Cc1nc2ccccc2[nH]1
IC50 (HCT-116 [7]): 8.34 µM
IC50 (HepG2 [8]): 7.8 µM
IC50 (MCF7 [9]): 6.81 µM

IC50 (HCT-116 [10]): 6.99 µM
IC50 (HepG2 [11]): 9.97 µM
IC50 (MCF7 [12]): 7.89 µM
Compound: O=C(CCSc1nc2ccccc2o1)Nc1nnc(-c2ccccc2)s1

IC50 (HCT-116 [10]): 5.76 µM
IC50 (HepG2 [11]): 9.45 µM
IC50 (MCF7 [12]): 7.36 µM
Compound: Cc1ccc2oc(SCCC(=O)Nc3nnc(-c4ccccc4)s3)nc2c1

Compound: COc1cc(C2OC(CCC(=O)c3nc4cc([N+](=O)[O-])ccc4[nH]3)=NN2C(C)=O)cc(OC)c1OC (configuration not stated)
inhibition at 0.3 µM (SK-MEL-2): 42.6%
IC50 (UO-31): 19.1 µM
inhibition at 0.3 µM (NCI-H522): 48.7%

inhibition [13]: 89.9%
Compound: Clc1ccc(/C=N/N=C(/c2ccccc2)c2ccc3nc(-c4ccc(Cl)cc4)[nH]c3c2)cc1
IC50 (A549 [14]): 1.88 µM
IC50 (NCI-H460): 0.85 µM

IC50 (HCT-116 [10]): 6.93 µM
IC50 (HepG2 [11]): 4.13 µM
IC50 (MCF7 [12]): 8.67 µM
Compound: Cc1ccc2oc(SCCC(=O)Nc3ccc(S(=O)(=O)NC(=O)NC4CCCCC4)cc3)nc2c1

IC50 (MCF7 [15]): 18.2 µM
IC50 (HepG2 [16]): 7.01 µM
Compound: Cc1ccc2oc(SCC(=O)Nc3ccc(C(=O)Nc4ccc(O)cc4)cc3)nc2c1

IC50 [2]: 0.18 µM
Compound: COc1cc(-c2nc3ccccc3s2)ccc1OCC(=O)N/N=C/c1ccc([N+](=O)[O-])cc1
IC50 (MCF7 [1]): 28.4 µM

IC50 (DU-145): 9.2 µM
IC50 (MCF7 [17]): 8.9 µM
Compound: COc1nc(C(=O)Nc2nc3cc(F)ccc3[nH]2)ccc1-n1cnc(C)c1

IC50 [2]: 0.13 µM
Compound: COC(=O)COc1ccc(/C=N/NC(=O)COc2ccc(-c3nc4ccccc4s3)cc2OC)cc1OC
IC50 (MCF7 [1]): 21.9 µM

IC50 (HCT-116 [10]): 12.5 µM
IC50 (HepG2 [11]): 9.95 µM
IC50 (MCF7 [12]): 15.7 µM
Compound: CCNC(=S)NS(=O)(=O)c1ccc(NC(=O)CCSc2nc3cc(C)ccc3o2)cc1

inhibition [13]: 86.2%
Compound: COc1ccc(/C=N/N=C(/c2ccccc2)c2ccc3nc(-c4ccc(Cl)cc4)[nH]c3c2)cc1
IC50 (A549 [14]): 3.58 µM
IC50 (NCI-H460): 1.71 µM

IC50 [18]: 0.0067 µM
IC50 [20]: 0.0069 µM
Compound: Clc1cccc(Cl)c1CNc1cccc(-c2nc3ccccc3[nH]2)c1
IC50 (MCF7 [19]): 6.3 µM

IC50 (HCT-116 [21]): 2.19 µM
IC50 (A549 [22]): 11 µM
Compound: O=C(CCc1nnc2sc(CCc3ccccc3)nn12)c1nc2cc([N+](=O)[O-])ccc2[nH]1

IC50 [2]: 0.17 µM
Compound: COc1cc(/C=N/NC(=O)COc2ccc(-c3nc4ccccc4s3)cc2OC)ccc1O
IC50 (MCF7 [1]): 6.58 µM

IC50 (HCT-116 [21]): 9.03 µM
IC50 (A549 [22]): 6.17 µM
Compound: O=C(CCc1nnc2sc(-c3ccc(Br)cc3)nn12)c1nc2cc([N+](=O)[O-])ccc2[nH]1

inhibition [5]: 28.8%
Compound: Cn1c(COC(=O)c2c[nH]c3ccc(Br)cc23)nc2ccccc21
IC50 at 72 h [3]: 0.27 µM
IC50 (HeLa): 0.33 µM
IC50 at 72 h [4]: 0.32 µM
IC50 (HT-29): 0.33 µM
IC50 at 72 h [6]: 0.45 µM

IC50 [18]: 0.0067 µM
IC50 [20]: 0.0068 µM
Compound: O=C(Nc1ccc([N+](=O)[O-])cc1)Nc1cccc(-c2nc3ccccc3[nH]2)c1
IC50 (MCF7 [19]): 7.18 µM

IC50 (HepG2 [23]): 7.92 µM
IC50 [24]: 0.091 µM
IC50 (HCT-116 [25]): 5.61 µM
IC50 (MCF7 [26]): 3.84 µM
Compound: O=C(CN1C(=O)S/C(=C\c2ccc(F)cc2)C1=O)Nc1nc2ccc([N+](=O)[O-])cc2s1
